Reference: patent publication US20230339952A1, “MACROCYCLIC HETEROCYCLES AND USES THEREOF” (Kumquat Biosciences Inc., priority 2022, published 2023)
Read-outs that look alike come from different tables or passages of the source.

Tests used:
SOS1 = SOS1 (Homo sapiens (Human), UniProt Q07889); experiment: Ras-SOS interaction assay (HTRF), K-Ras G13D utilized; format: binding
[1] = system: NCI-H1975 (ATCC CRL-5908) cell line comprising an EGFR T790M L858R double mutation; experiment: EGFR-SOS cellular inhibition assay (CellTiter-Glo cell proliferation); format: cell-based; conditions: Homo sapiens
Procedure: A CellTiter-Glo (CTG) luminescent based assay (Promega) is used to assess growth of the cells, as a measurement of the ability of the compounds herein to inhibit EGFR signaling in the cells. […] The day after plating, cells are treated with a dilution series (e.g., a 9 point 3-fold dilution series) of the compounds herein (e.g., approximately 125 μL final volume per well).

[2] = system: MIA PaCa-2 cells (K-Ras G12C); experiment: Ras-SOS cellular growth inhibition assay (CellTiter-Glo); conditions: Homo sapiens, MIA PaCa-2, 120 h, read-out: IC50 in inhibiting MIA PaCa-2 cell growth
Procedure: A CellTiter-Glo (CTG) luminescent based assay (Promega) is used to assess growth of the cells, as a measurement of the ability of the compounds herein to inhibit Ras signaling in the cells. […] The day after plating, cells are treated with a dilution series (e.g., a 9 point 3-fold dilution series) of the compounds herein (e.g., approximately 125 μL final volume per well). Cell viability can be monitored (e.g., approximately 5 days later) according to the manufacturer's recommended instructions, where the CellTiter-Glo reagent is added (e.g., approximately 65 μL), vigorously mixed, covered, and placed on a plate shaker (e.g., approximately for 20 min) to ensure sufficient cell lysis prior to assessment of luminescent signal. The IC50 values are determined using the four-parameter fit. The resulting IC50 value is a measurement of the ability of the compounds herein to reduce cell growth of Ras-driven cells as representative tumor cells.

[3] = Mouse oral exposure (% F); format: in vivo; conditions: plasma, female CD-1 mice, 10 mg/kg oral vs 2 mg/kg IV, single dosing
Procedure: A pharmacokinetic profile for a test compound is assessed by single dosing in female CD-1 mice. […] One set of animals is dosed intravenous (IV) with test compound, 2 mg/kg in 20% HP-beta-CD or 20% Captisol, pH adjusted to −5-6 by citric acid at 10 mL/kg. Time of blood sampling is 5 minutes, 15 minutes, 30 minutes, 90 minutes, 360 minutes, and 24 hours following IV dosing. […] Oral dosing solution concentration is 1 mg/mL test compound and 10 mL/kg. Time of blood sampling is 15 minutes, 30 minutes, 90 minutes, 180 minutes, 360 minutes and 24 hours following oral (po) dosing. Blood samples (˜0.1 mL/sample) are collected via submandibular facial vein and placed in tubes containing EDTA-K2 and stored on ice until centrifuged. The blood samples are centrifuged at approximately 6800 g for 6 minutes at 2-8° C. and the resulting plasma is separated and stored frozen at approximately −80° C. Plasma samples are analyzed using an Agilent Technologies 6430 Triple Quad LC/MS system, following the manufacturer instructions. All the analytes are detected with positive-mode electrospray ionization (ES+). […] Based on the time course sampling, an area under the curve is calculated for the oral dose group and the intravenous dose group. Percentage mouse bioavailability is calculated based on equation 6. […]

[4] = K-Ras G13D, read-out: SOS1 IC50
[5] = 120 h, NCI-H1975 cell proliferation, approximately 5 days, read-out: H1975 IC50
[6] = K-Ras G13D, read-out: IC50 value against SOS1
[7] = NCI-H1975, EGFR T790M L858R double mutation, read-out: IC50 in inhibiting growth of NCI-H1975 cell line
[8] = comparative values (Table 3), read-out: SOS1 IC50

Sequence of SOS1 (Q07889 564-1049): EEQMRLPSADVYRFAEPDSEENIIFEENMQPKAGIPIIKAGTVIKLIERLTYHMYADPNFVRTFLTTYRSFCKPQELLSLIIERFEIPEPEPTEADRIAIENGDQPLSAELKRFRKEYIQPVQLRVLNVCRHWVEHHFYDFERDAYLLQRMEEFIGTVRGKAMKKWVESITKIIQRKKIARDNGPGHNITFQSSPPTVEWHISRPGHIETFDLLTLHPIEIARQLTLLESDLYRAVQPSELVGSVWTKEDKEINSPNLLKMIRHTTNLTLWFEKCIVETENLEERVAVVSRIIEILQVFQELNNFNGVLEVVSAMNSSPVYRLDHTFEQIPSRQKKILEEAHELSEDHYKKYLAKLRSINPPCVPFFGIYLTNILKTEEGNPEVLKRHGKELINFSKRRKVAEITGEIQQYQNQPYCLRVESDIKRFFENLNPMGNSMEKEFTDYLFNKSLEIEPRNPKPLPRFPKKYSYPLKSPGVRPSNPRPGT

IC50 (SOS1; [4])	IC50 [1, 5]	IC50 (SOS1; [6])	IC50 [1, 7]	IC50 [2]	IC50 (SOS1; [8])	bioavailability [3]	Compound	ring closure, yield of all isomers (from C=CCCCCCn1c(=O)c(C2(C#N)CC2)cc2c(N[C@H](C)c3cccc(C(F)(F)C4CCN(CC=C)CC4)c3)ncnc21, rcm bond, Grubbs II catalyst, DCM, 1.41 mM, 40.0 °C)	ring closure, yield of all isomers (from C=CCCCCn1c(=O)c(C2CCS(=O)(=O)CC2)cc2c(N[C@H](C)c3cccc(C(F)(F)C4CCN(CC=C)CC4)c3)nc(C)nc21, rcm bond, Grubbs II, DCM, 4.48 mM, 25.0 °C, 16.0 h)	ring closure, yield of all isomers (from COc1cc2nc(C)nc(N[C@H](C)c3ccc(-c4ccccc4C=O)s3)c2cc1OCCOCCOCCOCCOCCN, amine bond, NaBH3CN, DCM, 28.4 mM, 25.0 °C, 16.0 h, 2 steps)	ring closure, yield of all isomers (from C[C@@H](Nc1ncnc2c1cc(C1(C#N)CCS(=O)(=O)CC1)c(=O)n2CCCCCCC=O)c1cccc(C(F)(F)C2CCNCC2)c1F, amine bond, NaBH3CN, MeOH, 0.73 mM, 25.0 °C, 16.5 h)
–	–	–	–	–	–	–	C[C@H]1Nc2ncnc3c2cc(C2(C#N)CC2)c(=O)n3CCCCCC=CCN2CCC(CC2)C(F)(F)c2cccc1c2	18.5%	–	–	–
–	–	–	–	–	–	–	Cc1nc2c3cc(C4CCS(=O)(=O)CC4)c(=O)n(c3n1)CCCCC=CCN1CCC(CC1)C(F)(F)c1cccc(c1)[C@@H](C)N2	–	64.2%	–	–
100 to 5000 nM	–	–	–	–	–	–	COc1cc2nc(C)nc3c2cc1OCCOCCOCCOCCOCCNCc1ccccc1C1=CC=C(S1)[C@@H](C)N3 [Compound 56, (R)-5^7-methoxy-5^2,3-dimethyl-6,9,12,15,18-pentaoxa-4,21-diaza-5(4,6)-quinazolina-2(2,5)-thiophena-1(1,2)-benzenacyclodocosaphane]	–	–	59.3%	–
< 100 nM	< 1000 nM	–	–	–	–	–	C[C@H]1Nc2ncnc3c2cc(C2(C#N)CCS(=O)(=O)CC2)c(=O)n3CCCCCCCN2CCC(CC2)C(F)(F)c2cccc1c2F [Compound 112, 4-((4R)-3^2,2,2-trifluoro-4-methyl-6^7-oxo-6^7,6^8-dihydro-5-aza-6(4,8)-pyrido[2,3-d]pyrimidina-1(4,1)-piperidina-3(1,3)-benzenacyclotridecaphane-6^6-yl)tetrahydro-2H-thiopyran-4-carbonitrile 1,1-dioxide]	–	–	–	28.2%
< 100 nM	< 1000 nM	< 50 nM	< 500 nM	< 1000 nM	–	–	Cc1nc2c3cc(C4(C#N)CC4)c(=O)n(c3n1)CCCCCCCN1CCC(CC1)C(F)(F)c1cccc(c1F)[C@@H](C)N2 [Compound 167, 1-((4R)-3^2,2,2-trifluoro-6^2,4-dimethyl-6^7-oxo-6^7,6^8-dihydro-5-aza-6(4,8)-pyrido[2,3-d]pyrimidina-1(4,1)-piperidina-3(1,3)-benzenacyclotridecaphane-6^6-yl)cyclopropane-1-carbonitrile]	–	–	–	–
< 100 nM	< 1000 nM	< 50 nM	< 500 nM	< 1000 nM	–	–	Cc1nc2c3cc(C4(C#N)CC4)c(=O)n(c3n1)CCC/C=C\CN1CCC(CC1)C(F)(F)c1cccc(c1F)[C@@H](C)N2 [Compound 170, 1-((4R,Z)-3^2,2,2-trifluoro-6^2,4-dimethyl-6^7-oxo-6^7,6^8-dihydro-5-aza-6(4,8)-pyrido[2,3-d]pyrimidina-1(4,1)-piperidina-3(1,3)-benzenacyclododecaphan-10-en-6^6-yl)cyclopropane-1-carbonitrile]	–	–	–	–
< 100 nM	< 1000 nM	< 50 nM	< 500 nM	< 1000 nM	–	–	Cc1nc2c3cc(C4(C#N)CC4)c(=O)n(c3n1)CCCCC/C=C\CN1CCC(CC1)C(F)(F)c1cccc(c1)[C@@H](C)N2 [Compound 171, 1-((4R,Z)-2,2-difluoro-6^2,4-dimethyl-6^7-oxo-6^7,6^8-dihydro-5-aza-6(4,8)-pyrido[2,3-d]pyrimidina-1(4,1)-piperidina-3(1,3)-benzenacyclotetradecaphan-12-en-6^6-yl)cyclopropane-1-carbonitrile]	–	–	–	–
< 100 nM	< 1000 nM	< 50 nM	< 500 nM	< 1000 nM	–	–	Cc1nc2c3cc(C4CCS(=O)(=O)CC4)c(=O)n(c3n1)CCCCCCCN1CCC(CC1)C(F)(F)c1cccc(c1)[C@@H](C)N2 [Compound 173, (4R)-6^6-(1,1-dioxidotetrahydro-2H-thiopyran-4-yl)-2,2-difluoro-6^2,4-dimethyl-6^7,6^8-dihydro-5-aza-6(4,8)-pyrido[2,3-d]pyrimidina-1(4,1)-piperidina-3(1,3)-benzenacyclotridecaphan-6^7-one]	–	–	–	–
< 100 nM	< 1000 nM	< 50 nM	< 500 nM	< 1000 nM	–	–	Cc1nc2c3cc(C4CCS(=O)(=O)CC4)c(=O)n(c3n1)CCCC/C=C\CN1CCC(CC1)C(F)(F)c1cccc(c1)[C@@H](C)N2 [Compound 174, (4R,Z)-6^6-(1,1-dioxidotetrahydro-2H-thiopyran-4-yl)-2,2-difluoro-6^2,4-dimethyl-6^7,6^8-dihydro-5-aza-6 (4,8)-pyrido[2,3-d]pyrimidina-1(4,1)-piperidina-3(1,3)-benzenacyclotridecaphan-11-en-6^7-one]	–	–	–	–
< 100 nM	< 1000 nM	< 50 nM	< 500 nM	< 1000 nM	8 nM	≥ 4%	Cc1nc2c3cc(C4CCN(C(C)C)CC4)c(=O)n(c3n1)CCCC/C=C\CN1CCC(CC1)C(F)(F)c1cccc(c1)[C@@H](C)N2 [Compound 175, (4R,Z)-2,2-difluoro-6^6-(1-isopropylpiperidin-4-yl)-6^2,4-dimethyl-6^7,6^8-dihydro-5-aza-6(4,8)-pyrido[2,3-d]pyrimidina-1(4,1)-piperidina-3(1,3)-benzenacyclotridecaphan-11-en-6^7-one]	–	–	–	–
< 100 nM	< 1000 nM	< 50 nM	< 500 nM	–	7 nM	≥ 4%	C[C@H]1Nc2ncnc3c2cc(C2CCS(=O)(=O)CC2)c(=O)n3CCCOCCCCN2CC(C2)CC(F)(F)c2cccc1c2 [Compound 176, (3R)-1^6-(1,1-dioxidotetrahydro-2H-thiopyran-4-yl)-5,5-difluoro-3-methyl-1^7,1^8-dihydro-12-oxa-2-aza-1(4,8)-pyrido[2,3-d]pyrimidina-7(3,1)-azetidina-4(1,3)-benzenacyclopentadecaphan-1^7-one]	–	–	–	–
